# According to PubChem BioAssay (NCI):
# Several values for one entry are separate records, joined by “and”; a condition that tells them apart may be missing. Identical values can stand only once.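 Step 1: Grow cells in 96-well plates. Step 2: Expose to compound for 48 hours at 5 concentrations. Step 3: Interpolate endpoints linearly; if unreached, use highest concentration. GI50 is the concentration that inhibits growth by half. Definition used: TGI = concentration required for complete inhibition of growth.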
# Columns and labels:
# Test in all cases: NCI-60 cell line screen, 48 h
# CAKI-1 renal = test system: CAKI-1 renal
# HCT-116 colon = test system: HCT-116 colon
# HT29 colon = test system: HT29 colon
# NCI-H460 lung = test system: NCI-H460 lung
# PC-3 prostate = test system: PC-3 prostate
# SF-539 CNS = test system: SF-539 CNS
# SK-MEL-28 melanoma = test system: SK-MEL-28 melanoma
# SK-OV-3 ovarian = test system: SK-OV-3 ovarian
# SN12C renal = test system: SN12C renal
# COLO 205 colon = test system: COLO 205 colon
SMILES,GI50 (CAKI-1 renal),TGI (CAKI-1 renal),GI50 (HCT-116 colon),TGI (HCT-116 colon),GI50 (HT29 colon),TGI (HT29 colon),GI50 (NCI-H460 lung),TGI (NCI-H460 lung),GI50 (PC-3 prostate),TGI (PC-3 prostate),GI50 (SF-539 CNS),TGI (SF-539 CNS),GI50 (SK-MEL-28 melanoma),TGI (SK-MEL-28 melanoma),GI50 (SK-OV-3 ovarian),TGI (SK-OV-3 ovarian),GI50 (SN12C renal),TGI (SN12C renal),TGI (COLO 205 colon),GI50 (COLO 205 colon)
O=C(Nc1ccc(Cl)cc1F)c1cc(F)ccc1O,0.588 µM,4.54 µM,0.702 µM,3.51 µM,3.24 µM,> 34 µM,0.647 µM,13.5 µM,1.49 µM,6.73 µM,0.845 µM,7.58 µM,0.485 µM,2.63 µM,1.25 µM,10.4 µM,0.643 µM,5.64 µM,–,–
Cc1cc2c(=O)cc(-c3ccc(C(F)(F)F)cc3)oc2c(C(=O)O)c1C,–,> 100 µM,–,> 100 µM,–,> 100 µM,–,> 100 µM,–,–,–,> 100 µM,–,> 100 µM,–,> 100 µM,–,> 100 µM,> 100 µM,–
NC1=NN(c2ccccc2)C(=O)C1/C(=N\NC(=O)c1cc2ccccc2cc1O)C(=O)Nc1nc([N+](=O)[O-])cs1 (stereo not drawn),–,99 µM,–,> 87.9 µM,–,> 93 µM,–,46.1 µM,–,–,–,59.6 µM,–,> 100 µM,–,> 100 µM,–,> 100 µM,54.8 µM,–
O=[N+]([O-])c1cccc(/C=C/c2ccccn2)c1,34.5 µM,> 100 µM,7.02 µM,> 100 µM,–,–,34.5 µM,> 100 µM,29.1 µM,> 100 µM,26.6 µM,> 100 µM,> 100 µM,> 100 µM,33.6 µM,> 100 µM,38.8 µM,> 100 µM,95.5 µM,24.3 µM
COc1cc[c]([Sb]([Br])([CH]=C(C)C)([CH]=C(C)C)[CH]=C(C)C)cc1,30.7 µM,> 100 µM,4.78 µM,73.7 µM,4.89 µM,> 100 µM,6.61 µM,54.5 µM,–,–,–,–,2.98 µM,93.5 µM,8.94 µM,48.3 µM,10.9 µM,> 100 µM,7.99 µM,1.95 µM
O=C(c1ccccn1)c1nc(-c2ccc(Cl)c(Cl)c2)nc2ccc(Cl)cc12,–,> 100 µM,–,33.4 µM,–,> 100 µM,–,> 100 µM,–,–,–,56.4 µM,–,> 100 µM,–,> 100 µM,–,–,–,–
COc1ccc2[nH]c3c(C)c4cc[n+](C)cc4c(C)c3c2c1,–,–,0.578 µM and 1.14 µM,–,2.52 µM and 1.97 µM,60.2 µM [middle of 4 runs],0.402 µM and 0.998 µM,–,–,99.3 µM and > 250 µM,–,1.65 µM and 1.46 µM and 1.32 µM,3.07 µM,10.8 µM [middle of 4 runs],4.31 µM and 1.57 µM,–,0.0483 µM and 0.0691 µM,797 nM [middle of 4 runs],7.97 µM and 4.89 µM and 3.58 µM,–
CSC1=Nc2c(c(C)c(-c3ccccc3)n2CCCCl)C2=NC(=O)CN12,4.6 µM,28.1 µM,3.19 µM,47.7 µM,3.85 µM,19.5 µM,3.7 µM,15 µM,8.68 µM,> 100 µM,3.42 µM,14 µM,10.2 µM,25.4 µM,–,–,6.28 µM,39 µM,15.2 µM,4.13 µM
N.N.N.N.N.N#N.[Cl-].[Os+7],> 100 µM,> 100 µM,> 100 µM,> 100 µM,–,–,> 100 µM,> 100 µM,–,–,> 100 µM,> 100 µM,> 100 µM,> 100 µM,–,–,> 100 µM,> 100 µM,> 100 µM,> 100 µM
NC(=S)N/N=C1\C(=O)N(CCc2ccccc2)C(=O)C1C(=O)NCCc1ccccc1 (stereo not drawn),–,> 100 µM,–,> 100 µM,–,> 100 µM,–,> 100 µM,–,–,–,> 100 µM,–,> 100 µM,–,> 100 µM,–,> 100 µM,> 100 µM,–
O=C(N[C@@H]1C=CCC[C@@H]1c1ccccc1)OCc1ccccc1,–,45.1 µM,–,34.6 µM,–,53.1 µM,–,34.7 µM,–,–,–,33.5 µM,–,46.5 µM,–,> 100 µM,–,31.1 µM,33.1 µM,–
O=C(c1ccco1)c1ccccc1C(=O)c1ccco1,–,> 100 µM,–,> 100 µM,–,> 100 µM,–,> 100 µM,–,–,–,> 100 µM,–,> 100 µM,–,–,–,> 100 µM,> 100 µM,–
COc1cc(OC)cc(-c2ccc(-c3ccc(C(=N)N)s3)s2)c1,1.38 µM,2.78 µM,0.318 µM,1.22 µM,–,–,0.482 µM,1.79 µM,1.42 µM,2.93 µM,1.24 µM,3.45 µM,1.52 µM,3.51 µM,–,–,1.74 µM,4.32 µM,0.407 µM,0.209 µM
